Holding throughout (test): inhibition of tumour cell growth, NCI panel, 48 h
In test [1] the test system is HOP-92 NSCLC.
For test [2], the system named is HT29 colon.
In test [3] the test system is K-562 leukemia.
Test [4] deals with OVCAR-5 ovarian.
In test [5] the test system is OVCAR-8 ovarian.
Test [6] deals with SF-268 CNS.
For test [7], the system named is SF-295 CNS.
Test [8] deals with SK-MEL-2 melanoma.
For test [9], the system named is SK-MEL-28 melanoma.
The subject of test [10] is SK-MEL-5 melanoma.
Test [11] has as its system SN12C renal.
For test [12], the system named is UACC-257 melanoma.
Test [13] concerns HCC-2998 colon.
For test [14], the system named is OVCAR-3 ovarian.
The subject of test [15] is HS 578T breast.
Test [16] has as its system MCF7 breast.
The test system of test [17] is PC-3 prostate.
Test [18] deals with DU-145 prostate.
The test system of test [19] is MDA-MB-231 breast.
Test [20] concerns T-47D breast.

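In this assay, cells in 96-well plates receive the compound at five concentrations for 48 hours. Endpoints are linearly interpolated between the surrounding concentrations. TGI denotes the concentration required for complete inhibition of growth.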 A value given as a limit tells only on which side of the number the result lay.

For `COc1ccc(C2S/C(=C\c3cccc([N+](=O)[O-])c3)C(=O)N2NC(=O)Cc2ccccc2)cc1` (stereo not drawn), the TGI in test [1], in [2], in test [3], in test [4], in test [5] and in test [6] was over 100 µM throughout. Further, the TGI in [7], in test [8], in test [9], in test [10], in [11] and in test [12] was over 100 µM each time.
For the compound `C/C(CN1C(=O)c2ccccc2C1=O)=N\NS(C)(=O)=O`, the TGI in test [13], in test [2], in [3], in test [14], in test [4] and in test [5] was over 100 µM throughout. Further, the TGI in [6], in test [7], in test [8], in test [9], in test [10] and in test [11] was over 100 µM each time. Further, the TGI in [12] was over 100 µM.
For `C=CCn1c(=S)sc2c(=O)[nH]cnc21`, the TGI in [13], in test [1], in [2], in [3], in test [14] and in [4] was over 100 µM in each case. The TGI in test [5], in test [6], in test [7], in [8], in test [10] and in test [11] was over 100 µM each time. The TGI in test [12] was over 100 µM.
With `COc1ccc(C2C3=C(CCCC3=O)N(c3ccccc3)C3=C2C(=O)CCC3)cc1`, the TGI in test [1], in test [15], in [2], in test [3], in test [16] and in [14] was over 100 µM each time. In addition, the TGI in [4], in test [17], in [6], in test [9] and in [11] was over 100 µM in each case.
For the compound `Clc1ccc(CCn2cncn2)c(Cl)c1`, the TGI in test [13], in [1], in [2], in test [3], in [14] and in test [4] was over 100 µM each time. Besides, the TGI in [5], in test [6], in test [7], in [9], in test [10] and in test [11] was over 100 µM each time. In addition, the TGI in test [12] is over 100 µM.
Consider `O=C1C=Cc2c(I)sc(I)c21`, for which the TGI in [18] is over 100 µM; in test [13], 35.3 µM; in [1], 33 µM; in test [2], 68.4 µM; in test [3], 56.8 µM; in test [16], 52.1 µM. The TGI in test [19] is 68.8 µM; in test [14], 39.7 µM; in test [4], 94.6 µM; in [5], 42.3 µM; in test [6], 32.7 µM; in [7] it was over 100 µM. In addition, the TGI was 64.4 µM in test [8]; 44.6 µM in test [9]; over 100 µM in test [10]; 45.7 µM in test [11]; 41.4 µM in test [20]; 53.5 µM in [12].
`O=C(Nc1ccc(F)cc1)c1cc2ccc(O)cc2oc1=Nc1cccc(F)c1`: the TGI in test [18], in test [13], in test [2], in test [3], in test [16] and in [14] was over 100 µM each time. Besides, the TGI was over 100 µM in [4]; 41.6 µM in [5]; over 100 µM in test [17]; over 100 µM in test [6]; over 100 µM in test [7]; over 100 µM in [8]. The TGI in [9] is over 100 µM; in test [10], 35.6 µM; in [11], over 100 µM; in test [20], over 100 µM; in test [12], over 100 µM.
With `COC1=CC(=O)C2[C@H]3Cc4ccccc4[C@H]3C2(C)C1=O` (stereo partly drawn), the TGI in test [13], in [1], in test [2], in [3], in [14] and in test [4] was over 100 µM in each case. Moreover, the TGI in [5], in test [6], in test [7], in test [8], in test [9] and in [10] was over 100 µM throughout. In test [12], this compound displayed a TGI of over 100 µM.
Take `COc1ccc(N2C(=O)CC(c3c[nH]c4ccccc34)C2=O)cc1` (stereo not drawn): the TGI in [18], in [13], in test [1], in test [15], in test [2] and in test [3] was over 100 µM throughout. Further, the TGI in test [16], in [19], in [14], in [4], in test [5] and in [17] was over 100 µM in each case. In addition, the TGI in test [6], in [7], in test [8], in [9], in [10] and in [11] was over 100 µM throughout. In test [12], this compound returned a TGI of over 100 µM.
Regarding `COc1cc([C@@H]2c3cc4c(cc3[C@@H](NC(=O)c3ccc([N+](=O)[O-])cc3)C3COC(=O)[C@@H]32)OCO4)cc(OC)c1O` (stereo partly drawn), the TGI in test [13] is 3.44 µM; in [1], 40.2 µM; in test [2], 5.68 µM; in [3], over 100 µM; in [14] it was 4.81 µM; in test [4], 76.2 µM. Moreover, the TGI was 6.05 µM in test [5]; 5.77 µM in test [6]; 11.5 µM in [7]; 6.61 µM in test [8]; 89 µM in test [9]; 3.53 µM in test [10]. In addition, the TGI in test [11] came out at 1.37 µM; in test [12], 59.6 µM.

(Values after PubChem BioAssay (NCI).)
